Reference: EP0620225B1, “Cephalosporin derivatives” (Basilea Pharmaceutica AG, priority 1993, dated 1994)
Values after ≈ are worked out from the molar mass of the structure shown.

Columns and labels:
E.faecalis [1] = assay: In vitro activity against selected species (MIC50, MIC90, range); format: cell-based; conditions: Enterococcus faecalis, medium MHA; for MIC: MIC range
Protocol: (§1) In vitro activity was determined by minimum inhibitory concentration in a microorganism spectum by the agar dilution method in Mueller Hinton agar.

S.aureus MRSA = assay: as above; format: cell-based; conditions: Staphylococcus aureus, medium MHA (Mueller Hinton Agar) +NaCl; for MIC: MIC range
Protocol: as §1

S.aureus Smith = assay: Efficacy against systemic infections (septicemia) in mice; format: in vivo; conditions: Staphylococcus aureus, 96 h, sc 1 and 3 h after challenge, survival day 4
Protocol: (§2) Septicemia was induced in outbred Swiss albino mice (Jbm MoRo [specific pathogen free]; weight 16 to 20 g, Biomedical Research Laboratories, Füllinsdorf, Switzerland). Mice were infected by intraperitoneal injection of diluted overnight cultures of the test organisms. Bacterial challenge doses were 4-10 times the number of organisms required to kill 50% of untreated animals within 48 h. The test compounds were administered p.o. or s.c. 1 and 3 h after the bacterial challenge. To treat the infection with Pseudomonas aeruginosa BA an additional dose was given 5 h after challenge. Control and treatment groups at each dose were composed of five mice each. The 50% effective dose (ED50, in milligrams per kilogram) was calculated by probit analysis as described by Finney (Finney, D.J. 1978, Statistical method in biological assay, 3rd ed. Charles Griffin & Co., Ltd., London), from the survival rates on day 4 after infection.

E.faecalis 6 = assay: Antibacterial spectrum (MIC), agar dilution; format: cell-based; conditions: Enterococcus faecalis, read-out: MIC
Protocol: as §1

M.catarrhalis RA21 = assay: Antibacterial spectrum (MIC), agar dilution; format: cell-based; conditions: Moraxella catarrhalis, read-out: MIC
Protocol: as §1

Acinetobacter sp.51-156 = assay: Antibacterial spectrum (MIC), agar dilution; format: cell-based; conditions: SP.51156, read-out: MIC
Protocol: as §1

H.influenzae 1 = assay: Antibacterial spectrum (MIC), agar dilution; format: cell-based; conditions: Haemophilus influenzae, read-out: MIC
Protocol: as §1

E.cloacae 908SSi = assay: Antibacterial spectrum (MIC), agar dilution; format: cell-based; conditions: Enterobacter cloacae, read-out: MIC
Protocol: as §1

P.mirabilis 2117 = assay: Antibacterial spectrum (MIC), agar dilution; format: cell-based; conditions: Proteus mirabilis, read-out: MIC
Protocol: as §1

S.agalactiae QK44 = assay: Antibacterial spectrum (MIC), agar dilution; format: cell-based; conditions: Streptococcus agalactiae, read-out: MIC
Protocol: as §1

S.aureus 734 MRSA = assay: Antibacterial spectrum (MIC), agar dilution; format: cell-based; conditions: Staphylococcus aureus, read-out: MIC
Protocol: as §1

S.marcescens 69438 = assay: Antibacterial spectrum (MIC), agar dilution; format: cell-based; conditions: Serratia marcescens, read-out: MIC
Protocol: as §1

P.aeruginosa 27853 = assay: Antibacterial spectrum (MIC), agar dilution; format: cell-based; conditions: Pseudomonas aeruginosa, read-out: MIC
Protocol: as §1

S.viridans group 016 = assay: Antibacterial spectrum (MIC), agar dilution; format: cell-based; conditions: Streptococcus viridans, read-out: MIC
Protocol: as §1

X.maltophilia 1AC739 = assay: Antibacterial spectrum (MIC), agar dilution; format: cell-based; conditions: Stenotrophomonas maltophilia, read-out: MIC
Protocol: as §1

E.coli 25922 = assay: Antibacterial spectrum (MIC), agar dilution; format: cell-based; conditions: Escherichia coli, read-out: MIC
Protocol: as §1

P.vulgaris 1028 = assay: Antibacterial spectrum (MIC), agar dilution; format: cell-based; conditions: Proteus vulgaris, read-out: MIC
Protocol: as §1

C.freundii 43 = assay: Antibacterial spectrum (MIC), agar dilution; format: cell-based; conditions: Citrobacter freundii, read-out: MIC
Protocol: as §1

C.freundii 902 = assay: Antibacterial spectrum (MIC), agar dilution; format: cell-based; conditions: Citrobacter freundii, read-out: MIC
Protocol: as §1

S.pyogenes B15 = assay: Antibacterial spectrum (MIC), agar dilution; format: cell-based; conditions: Streptococcus pyogenes, read-out: MIC
Protocol: as §1

S.pneumoniae Q19 = assay: Antibacterial spectrum (MIC), agar dilution; format: cell-based; conditions: Streptococcus pneumoniae, read-out: MIC
Protocol: as §1

S.aureus 6538 = assay: Antibacterial spectrum (MIC), agar dilution; format: cell-based; conditions: Staphylococcus aureus, read-out: MIC
Protocol: as §1

M.morganii 6H-137 = assay: Antibacterial spectrum (MIC), agar dilution; format: cell-based; conditions: Morganella morganii, 6H137, read-out: MIC
Protocol: as §1

E.cloacae 908R = assay: Antibacterial spectrum (MIC), agar dilution; format: cell-based; conditions: Enterobacter cloacae, read-out: MIC
Protocol: as §1

K.pneumoniae 418 = assay: Antibacterial spectrum (MIC), agar dilution; format: cell-based; conditions: Klebsiella pneumoniae, read-out: MIC
Protocol: as §1

N.meningitidis 69480 = assay: Antibacterial spectrum (MIC), agar dilution; format: cell-based; conditions: Neisseria meningitidis, read-out: MIC
Protocol: as §1

M.catarrhalis = assay: In vitro activity against selected species (MIC50, MIC90, range); format: cell-based; conditions: Moraxella catarrhalis, medium IsoB
Escherichia coli 25922 = assay: Efficacy against systemic infections (septicemia) in mice; format: in vivo; conditions: 96 h, survival day 4
Protocol: as §2

E.faecalis [2] = assay: In vitro activity against selected species (MIC50, MIC90, range); format: cell-based; conditions: Enterococcus faecalis, medium IsoB
S.aureus MSSA = assay: as above; format: cell-based; conditions: Staphylococcus aureus, medium MHB (Mueller Hinton Broth)
S.viridans group = assay: as above; format: cell-based; conditions: Streptococcus viridans
S.pneumoniae PEN-R = assay: as above; format: cell-based; conditions: Streptococcus pneumoniae; for MIC: MIC range
E.faecium = assay: In vitro activity against selected species (MIC50, range); format: cell-based; conditions: Enterococcus faecium, medium MHA
Protocol: as §1

[3] = medium IsoB (Isosensitest Broth)

## Nc1nc(/C(=N/O)C(=O)N[C@@H]2C(=O)N3C(C(=O)O)=C(/C=C4\CCN(c5ccccc5)C4=O)CS[C@H]23)cs1 [H]
E.faecalis [1]
  MIC: 0.5 to 16 µg/mL (≈ 0.925 to 29.6 µM)
  MIC50: 1 µg/mL (≈ 1.85 µM)
  MIC90: 1 µg/mL (≈ 1.85 µM)
S.aureus MRSA
  MIC: 16 to 32 µg/mL (≈ 29.6 to 59.2 µM)
  MIC50: 16 µg/mL (≈ 29.6 µM)
  MIC90: 16 µg/mL (≈ 29.6 µM)
S.aureus Smith
  ED50: < 0.5 mg/kg
E.faecalis 6
  MIC: 0.25 µg/mL (≈ 0.462 µM)
M.catarrhalis RA21
  MIC: > 16 µg/mL
Acinetobacter sp.51-156
  MIC: 32 µg/mL (≈ 59.2 µM)
H.influenzae 1
  MIC: 0.5 µg/mL (≈ 0.925 µM)
E.cloacae 908SSi
  MIC: 0.5 µg/mL (≈ 0.925 µM)
P.mirabilis 2117
  MIC: ≤ 0.06 µg/mL
S.agalactiae QK44
  MIC: 0.25 µg/mL (≈ 0.462 µM)
S.aureus 734 MRSA
  MIC: 8 µg/mL (≈ 14.8 µM)
S.marcescens 69438
  MIC: 1 µg/mL (≈ 1.85 µM)
P.aeruginosa 27853
  MIC: 32 µg/mL (≈ 59.2 µM)
S.viridans group 016
  MIC: 1 µg/mL (≈ 1.85 µM)
X.maltophilia 1AC739
  MIC: > 32 µg/mL
E.coli 25922
  MIC: 0.25 µg/mL (≈ 0.462 µM)
P.vulgaris 1028
  MIC: 2 µg/mL (≈ 3.7 µM)
C.freundii 43
  MIC: 4 µg/mL (≈ 7.4 µM)
C.freundii 902
  MIC: 0.5 µg/mL (≈ 0.925 µM)
S.pyogenes B15
  MIC: ≤ 0.06 µg/mL
S.pneumoniae Q19
  MIC: 0.12 µg/mL (≈ 0.222 µM)
S.aureus 6538
  MIC: 0.5 µg/mL (≈ 0.925 µM)
M.morganii 6H-137
  MIC: ≤ 0.06 µg/mL
E.cloacae 908R
  MIC: 16 µg/mL (≈ 29.6 µM)
K.pneumoniae 418
  MIC: 0.12 µg/mL (≈ 0.222 µM)
N.meningitidis 69480
  MIC: 0.12 µg/mL (≈ 0.222 µM)

## Nc1nc(/C(=N/O)C(=O)N[C@@H]2C(=O)N3C(C(=O)O)=C(/C=C4\CCN(C5CC5)C4=O)CS[C@H]23)cs1 [D, [6R-[3(E),6α,7β(Z)]]-7-[[(2-Amino-4-thiazolyl)(hydroxyimino)-acetyl]amino] -3-[[1-cyclopropyl-2-oxo-3-pyrrolidinylidene]-methyl)-8-oxo-5-thia-1-azabicyclo[4.2.0]-oct-2-ene-2-carboxylic acid]
M.catarrhalis; MIC range
  MIC: 1 to 32 µg/mL (≈ 1.98 to 63.4 µM)
M.catarrhalis
  MIC50: 4 µg/mL (≈ 7.93 µM)
  MIC90: 16 µg/mL (≈ 31.7 µM)
E.faecalis [1]
  MIC: 1 to 2 µg/mL (≈ 1.98 to 3.96 µM)
  MIC50: 1 µg/mL (≈ 1.98 µM)
  MIC90: 2 µg/mL (≈ 3.96 µM)
S.aureus MRSA
  MIC: 16 to 32 µg/mL (≈ 31.7 to 63.4 µM)
  MIC50: 16 µg/mL (≈ 31.7 µM)
  MIC90: 16 µg/mL (≈ 31.7 µM)
Escherichia coli 25922; Escherichia coli 25922, po (orally) 1 and 3 h after challenge
  ED50: 3 mg/kg
Escherichia coli 25922; Escherichia coli, E.coli 25922, sc 1 and 3 h after challenge
  ED50: ≤ 0.1 mg/kg
S.aureus Smith
  ED50: < 1 mg/kg
E.faecalis [2]; MIC range
  MIC: 0.25 to 2 µg/mL (≈ 0.495 to 3.96 µM)
E.faecalis [2]
  MIC50: 1 µg/mL (≈ 1.98 µM)
  MIC90: 2 µg/mL (≈ 3.96 µM)
S.aureus MSSA; MIC range
  MIC: 0.5 to 1 µg/mL (≈ 0.991 to 1.98 µM)
S.aureus MSSA
  MIC50: 1 µg/mL (≈ 1.98 µM)
  MIC90: 1 µg/mL (≈ 1.98 µM)
E.faecalis 6
  MIC: 1 µg/mL (≈ 1.98 µM)
M.catarrhalis RA21
  MIC: 8 µg/mL (≈ 15.9 µM)
Acinetobacter sp.51-156
  MIC: 16 µg/mL (≈ 31.7 µM)
H.influenzae 1
  MIC: 0.25 µg/mL (≈ 0.495 µM)
E.cloacae 908SSi
  MIC: 0.12 µg/mL (≈ 0.238 µM)
P.mirabilis 2117
  MIC: ≤ 0.06 µg/mL
S.agalactiae QK44
  MIC: 0.25 µg/mL (≈ 0.495 µM)
S.aureus 734 MRSA
  MIC: 16 µg/mL (≈ 31.7 µM)
S.marcescens 69438
  MIC: 0.5 µg/mL (≈ 0.991 µM)
P.aeruginosa 27853
  MIC: 8 µg/mL (≈ 15.9 µM)
S.viridans group 016
  MIC: 1 µg/mL (≈ 1.98 µM)
X.maltophilia 1AC739
  MIC: > 32 µg/mL
E.coli 25922
  MIC: ≤ 0.06 µg/mL
P.vulgaris 1028
  MIC: 1 µg/mL (≈ 1.98 µM)
C.freundii 43
  MIC: 2 µg/mL (≈ 3.96 µM)
C.freundii 902
  MIC: ≤ 0.06 µg/mL
S.pyogenes B15
  MIC: ≤ 0.06 µg/mL
S.pneumoniae Q19
  MIC: ≤ 0.06 µg/mL
S.aureus 6538
  MIC: 0.5 µg/mL (≈ 0.991 µM)
M.morganii 6H-137
  MIC: ≤ 0.06 µg/mL
E.cloacae 908R
  MIC: 8 µg/mL (≈ 15.9 µM)
K.pneumoniae 418
  MIC: ≤ 0.06 µg/mL
N.meningitidis 69480
  MIC: ≤ 0.06 µg/mL
S.viridans group
  MIC50: 2 µg/mL (≈ 3.96 µM)
  MIC90: 2 µg/mL (≈ 3.96 µM)
S.viridans group; MIC range
  MIC: 0.12 to 8 µg/mL (≈ 0.238 to 15.9 µM)
S.pneumoniae PEN-R; [3]
  MIC: 0.12 to 0.5 µg/mL (≈ 0.238 to 0.991 µM)
  MIC50: 0.25 µg/mL (≈ 0.495 µM)
  MIC90: 0.5 µg/mL (≈ 0.991 µM)
S.pneumoniae PEN-R; medium IsoB + 20% serum
  MIC: 0.12 to 0.5 µg/mL
  MIC50: 0.5 µg/mL
E.faecium; MIC range
  MIC: 1 to 32 µg/mL (≈ 1.98 to 63.4 µM)
E.faecium
  MIC50: 4 µg/mL (≈ 7.93 µM)
